Values quoted from earlier work as cited in patent publication US20110206661A1, “TRIMETHOXYPHENYL INHIBITORS OF TYROSINE KINASE” (AUSPEX PHARMACEUTICALS, INC., priority 2010, published 2011).

Settings: human plasma after oral administration of fostamatinib

- drug-related compound observed in human plasma: only small amounts
SMILES: COc1cc(Nc2ncc(F)c(Nc3ccc4c(n3)N(COP(=O)(O)O)C(=O)C(C)(C)O4)n2)cc(OC)c1OC [Fostamatinib, 6-[[5-fluoro-2-[(3,4,5-trimethoxyphenyl)amino]-4-pyrimidinyl]amino]-2,2-dimethyl-4-[(phosphonooxy)methyl]-2H-pyrido[3,2-b]-1,4-oxazin-3(4H)-one]
